The values that follow are results of earlier work, collected in PubChem BioAssay AID1259409 (Chemical Carcinogenesis Research Information System (CCRIS), 2018).

The series relates to rodent chemically induced tumor inhibition, incidence and multiplicity. Briefly: CCRIS tumor inhibitor studies.

Where “and” joins values, the source holds several entries; their conditions need not be identical. Equal values may be shown once.

In the case of `Oc1cc(O)c2c(c1)O[C@H](c1cc(O)c(O)c(O)c1)[C@H](O)C2`, the “tumour outcome (control, treated, inhibition, significance)” value was 100%, 100%, 0%, not significant (Carcinogen: 4-METHYLNITROSAMINO-1-(3-PYRIDYL)-1-BUTANONE, 64091-91-4, Dose [Inhibitor]: 0, 560 PPM IN DRINKING WATER 2 WK PRIOR TO CARCINOGEN AND CONTINUING FOR 13 WK (STUDY DURATION: 29 WK), Route [Inhibitor]: ORAL, Species: MOUSE, Strain/Sex: A/J/FEMALE, Target Tissue: Type of Lesion: LUNG: ADENOMA, Dose [Carcinogen]: 11.65 MG/KG IN CORN OIL 3/WK FOR 10 WK, Promoter: NONE USED); 20/36 (63%), 6/30 (20%), 68%, p<0.001 (Carcinogen: N-ETHYL-N'-NITRO-N-NITROSOGUANIDINE, 4245-77-6, Dose [Inhibitor]: 0, 0.005% IN DRINKING WATER BEGINNING POST CARCINOGEN TREATMENT AND CONTINUING FOR DURATION OF STUDY (STUDY DURATION: 16, Route [Inhibitor]: ORAL, Species: MOUSE, Strain/Sex: C57BL/MALE, Target Tissue: Type of Lesion: DUODENUM: TUMOR, Dose [Carcinogen]: 100 MG/L IN DRINKING WATER FOR 4 WK, Promoter: NONE USED); 10/14 (71%), 6/10 (60%), 15%, not significant (Carcinogen: N-METHYL-N'-NITRO-N-NITROSOGUANIDINE, 70-25-7, Dose [Inhibitor]: 0, 0.005% IN DRINKING WATER BEGINNING POST CARCINOGEN TREATMENT AND CONTINUING FOR DURATION OF STUDY (STUDY DURATION: 44, Route [Inhibitor]: ORAL, Species: RAT, Strain/Sex: WISTAR/MALE, Target Tissue: Type of Lesion: GLANDULAR STOMACH: TUMOR, Dose [Carcinogen]: 100 MG/L IN DRINKING WATER FOR 28 WK, Promoter: NONE USED); 21/34 (62%), 11/35 (31%), 50%, p<0.05 (Carcinogen: N-METHYL-N'-NITRO-N-NITROSOGUANIDINE, 70-25-7, Dose [Inhibitor]: 0, 0.05% IN DRINKING WATER BEGINNING POST CARCINOGEN TREATMENT AND CONTINUING FOR DURATION OF STUDY (STUDY DURATION: 44, Route [Inhibitor]: ORAL, Species: RAT, Strain/Sex: WISTAR/MALE, Target Tissue: Type of Lesion: GLANDULAR STOMACH: TUMOR, Dose [Carcinogen]: 80 MG/L IN DRINKING WATER FOR 28 WK, Promoter: NONE USED); 100%; 10%, 90% (at wk 11) (Carcinogen: PEROXYNITRITE [19059-14-4], Dose [Inhibitor]: 0.0025% IN WATER FROM 1 WK BEFORE TO 1 WK AFTER INITIATION, Route [Inhibitor]: DRINKING WATER, Species: MOUSE, Strain/Sex: SENCAR/FEMALE, Target Tissue: Type of Lesion: SKIN: PAPILLOMA, Dose [Carcinogen]: 390 UMOL ONCE (STUDY DURATION: 20 WKS), Promoter: TETRADECANOYL PHORBOL ACETATE [16561-29-8]).
`O=c1ccc2ccc(O)cc2o1`: the “tumour outcome (control, treated, inhibition, significance)” value by setting is: (Carcinogen: 7,12-DIMETHYLBENZ[A]ANTHRACENE, 57-97-6, Dose [Inhibitor]: 0.034 MMOL/G IN DIET FOR 8 D BEGINNING 7 D PRIOR TO CARCINOGEN DOSE (STUDY DURATION: 23 WK), Route [Inhibitor]: ORAL, Species: RAT, Strain/Sex: SPRAGUE-DAWLEY/FEMALE, Target Tissue: Type of Lesion: MAMMARY GLAND: TUMOR, Dose [Carcinogen]: 12 MG IN 1.0 ML OLIVE OIL ONCE, Promoter: NONE USED) 93%, 93%, 0%, not significant; (Carcinogen: BENZO[A]PYRENE, 50-32-8, Dose [Inhibitor]: 0.034 MMOL/G IN DIET FOR 5 WK BEGINNING 1 WK PRIOR TO FIRST CARCINOGEN DOSE (STUDY DURATION: 21 WK), Route [Inhibitor]: ORAL, Species: MOUSE, Strain/Sex: ICR/FEMALE, Target Tissue: Type of Lesion: FORESTOMACH: TUMOR, Dose [Carcinogen]: 1 MG IN 0.2 ML CORN OIL 2/WK FOR 4 WK, Promoter: NONE USED) 100%, 95%, 5%, not significant and 90%, 95%,-5%, not significant and 95%, 100%, -5%, not significant; (Carcinogen: BENZO[A]PYRENE, 50-32-8, Dose [Inhibitor]: 0.068 MMOL/G IN DIET FOR 5 WK BEGINNING 1 WK PRIOR TO FIRST CARCINOGEN DOSE (STUDY DURATION: 21 WK), Route [Inhibitor]: ORAL, Species: MOUSE, Strain/Sex: ICR/FEMALE, Target Tissue: Type of Lesion: FORESTOMACH: TUMOR, Dose [Carcinogen]: 1 MG IN 0.2 ML CORN OIL 2/WK FOR 4 WK, Promoter: NONE USED) 100%, 95%, 5%, not significant.
Turning to `C=CCc1ccc(O)c(OC)c1`, the “tumour outcome (control, treated, inhibition, significance)” value (Carcinogen: BENZO[A]PYRENE, 50-32-8, Dose [Inhibitor]: 10 MG IN 0.1 ML ACETONE 3/WK ADMINISTERED SIMULTANEOUSLY WITH CARCINOGEN FOR DU RATION OF STUDY (STUDY DURATION: 368 D), Route [Inhibitor]: DERMAL, Species: MOUSE, Strain/Sex: ICR/FEMALE, Target Tissue: Type of Lesion: SKIN: PAPILLOMA, Dose [Carcinogen]: 5 UG IN 0.1 ML ACETONE 3/WK FOR DURATION OF STUDY, Promoter: NONE USED) is reported as 14/50 (28%), 4/50 (8%), 71%, not calculated and the “tumour outcome (control, treated, inhibition, significance)” value (Carcinogen: BENZO[A]PYRENE, 50-32-8, Dose [Inhibitor]: 10 MG IN 0.1 ML ACETONE 3/WK ADMINISTERED SIMULTANEOUSLY WITH CARCINOGEN FOR DU RATION OF STUDY (STUDY DURATION: 368 D), Route [Inhibitor]: DERMAL, Species: MOUSE, Strain/Sex: ICR/FEMALE, Target Tissue: Type of Lesion: SKIN: SQUAMOUS CARCINOMA, Dose [Carcinogen]: 5 UG IN 0.1 ML ACETONE 3/WK FOR DURATION OF STUDY, Promoter: NONE USED) is listed as 10/50 (20%), 2/50 (4%), 80%, not calculated.
